Assay results taken from ChEMBL document CHEMBL3608235, “Pyrroloaryls and pyrroloheteroaryls: Inhibitors of the HIV fusion/attachment, reverse transcriptase and integrase” (Bioorg Med Chem, 2015).

Tests used:
[1] = target: Human immunodeficiency virus type 1 reverse transcriptase (Human immunodeficiency virus 1, UniProt Q72547); test: Inhibition of HIV1 reverse transcriptase
[2] = Cytotoxicity against mock-infected human MT4 cells assessed as reduction in cell viability; type: cell-based
[3] = tested on: Human immunodeficiency virus 1; test: Antiviral activity against HIV1 infected in human MT4 cells assessed as reduction in virus-induced cytopathogenicity; type: functional, organism-based; conditions: Human immunodeficiency virus 1, MT4
[4] = tested on: Human immunodeficiency virus 2; test: Antiviral activity against HIV2 ROD; type: functional, organism-based; conditions: Human immunodeficiency virus 2, ISOLATE ROD
[5] = Selectivity index, ratio of CC50 for mock-infected human MT4 cells to EC50 for HIV1 infected in human MT4 cells; type: toxicity, cell-based; conditions: MT4 cells (mock-infected and HIV1-infected), read-out: Ratio CC50/EC50
[6] = tested on: Human immunodeficiency virus; test: Antiviral activity against HIV by XTT assay; type: functional, organism-based; conditions: Human immunodeficiency virus 1

Row | EC50 [3] [µM] | EC50 [4] [µM] | Structure (SMILES) | CC50 [2] [µM] | selectivity ratio [5] | further results
1 | 3.5 | – | CC(C)N1C(=O)c2cccn2S(=O)(=O)c2ccccc21 | > 100 | – | IC50 [1]: 4 µM
2 | – | > 150 | O=C1N(Cc2cccc(Cl)c2)c2cccn2S(=O)(=O)N1Cc1cccc(Cl)c1 | – | – | –
3 | 2.2 | – | O=C1Nc2ccc(Cl)cc2S(=O)(=O)c2cn(CC3CC3)cc21 | – | – | –
4 | 0.05 | – | CC(C)c1c(CO)cn(Cc2ccncc2)c1Sc1cccc(F)c1 | 71 | 1420 | –
5 | 7.6 | – | Cn1cc2c(c1)S(=O)(=O)c1cc(Cl)ccc1NC2=S | – | – | –
6 | – | > 150 | O=C1N(Cc2ccccc2Br)c2cccn2S(=O)(=O)N1Cc1cccc(Cl)c1 | – | – | –
7 | – | > 150 | O=C1N(Cc2ccccc2)c2cccn2S(=O)(=O)N1Cc1cccc(Br)c1 | – | – | –
8 | – | – | CCCCCCCCCC(=O)NC1=NN(C)c2ncnc3c2c1cn3[C@@H]1O[C@H](CO)[C@@H](O)[C@H]1O | – | – | IC50 [6]: > 100 µM
9 | – | > 150 | O=C1N(Cc2ccccc2Cl)c2cccn2S(=O)(=O)N1Cc1ccccc1 | – | – | –
10 | 1.6 | – | CN1C(=S)c2cn(C)cc2S(=O)(=O)c2cc(Cl)ccc21 | – | – | –
11 | 4.1 | – | C/C=C/CN1C(=O)c2cccn2S(=O)(=O)c2cc(Cl)ccc21 | > 300 | > 73 | IC50 [1]: 3.1 µM
12 | – | > 150 | CC(C)=CCN1C(=O)N(Cc2cccc(Br)c2)S(=O)(=O)n2cccc21 | – | – | –
13 | – | – | CCCCC(=O)NC1=NN(C)c2ncnc3c2c1cn3[C@@H]1O[C@H](CO)[C@@H](O)[C@H]1O | – | – | IC50 [6]: 0.8 µM
14 | – | > 150 | N#CCN1C(=O)N(Cc2cccc(F)c2)S(=O)(=O)n2cccc21 | – | – | –
15 | 45.2 | – | CCC1(CC=C(C)C)Sc2ccccc2-n2cccc2C1=O (stereo not drawn) | 0.3 | 9 | IC50 [1]: 1.35 µM
16 | – | > 150 | N#Cc1ccccc1CN1C(=O)N(Cc2cccc(Br)c2)S(=O)(=O)n2cccc21 | – | – | –
17 | 0.03 | – | CC(C)c1c(CO)cn(Cc2ccncc2)c1Sc1cc(Cl)cc(Cl)c1 | > 200 | > 6670 | –
18 | – | > 150 | O=C1N(Cc2ccccc2Br)c2cccn2S(=O)(=O)N1Cc1cccc(F)c1 | – | – | –
19 | 3.5 | – | CN1C(=O)c2cccn2S(=O)(=O)c2ccccc21 | > 100 | – | IC50 [1]: 4 µM
20 | 3.5 | – | C=CCN1C(=O)c2cccn2S(=O)(=O)c2ccccc21 | > 100 | – | IC50 [1]: 4 µM
21 | – | – | CCCC(=O)NC1=NN(C)c2ncnc3c2c1cn3[C@@H]1O[C@H](CO)[C@@H](O)[C@H]1O | – | – | IC50 [6]: 0.5 µM

Row | EC50 [3] [µM] | EC50 [4] [µM] | Structure (SMILES) | CC50 [2] [µM] | selectivity ratio [5] | further results
22 | – | > 150 | CC(C)=CCN1C(=O)N(Cc2ccccc2)S(=O)(=O)n2cccc21 | – | – | –
23 | 8.1 | – | O=S1(=O)c2cc(Cl)ccc2NC(=S)c2c[nH]cc21 | – | – | –
24 | 0.7 | – | CC(C)=CCn1cc2c(c1)S(=O)(=O)c1cc(Cl)ccc1NC2=S | – | – | –
25 | 0.12 | – | CC(C)c1c(COC(N)=O)cn(Cc2ccncc2)c1Sc1cc(Cl)cc(Cl)c1 | > 200 | > 1670 | –
26 | – | > 150 | N#CCN1C(=O)N(Cc2cccc(Cl)c2)S(=O)(=O)n2cccc21 | – | – | –
27 | 3.7 | – | C=CCN1C(=O)c2cccn2S(=O)(=O)c2cc(Cl)ccc21 | > 300 | > 81 | IC50 [1]: 2.9 µM
28 | – | > 150 | O=C1N(Cc2ccccc2Br)c2cccn2S(=O)(=O)N1Cc1ccccc1 | – | – | –
29 | 3.5 | – | CCN1C(=O)c2cccn2S(=O)(=O)c2ccccc21 | > 100 | – | IC50 [1]: 4 µM
30 | 1 | – | O=C1Nc2ccc(Cl)cc2S(=O)(=O)n2cccc21 | > 300 | > 300 | IC50 [1]: 0.7 µM
31 | – | – | CC(C)=CCn1cc2c(c1)S(=O)(=O)c1cc(Cl)ccc1NC2=O | 68 | 226 | –
32 | – | > 150 | N#Cc1cccc(CN2C(=O)N(Cc3cccc(Cl)c3)S(=O)(=O)n3cccc32)c1 | – | – | –
33 | – | > 150 | O=C1N(Cc2ccccc2)c2cccn2S(=O)(=O)N1Cc1cccc(F)c1 | – | – | –
34 | – | > 150 | O=C1N(Cc2ccccc2)c2cccn2S(=O)(=O)N1Cc1ccccc1 | – | – | –
35 | – | > 150 | N#Cc1ccccc1CN1C(=O)N(Cc2cccc(Cl)c2)S(=O)(=O)n2cccc21 | – | – | –
36 | 2.4 | – | CCN1C(=O)c2cccn2S(=O)(=O)c2cc(Cl)ccc21 | > 300 | 118 | IC50 [1]: 2.7 µM
37 | – | > 150 | N#Cc1cccc(CN2C(=O)N(Cc3cccc(F)c3)S(=O)(=O)n3cccc32)c1 | – | – | –
38 | 37.3 | – | CCC1(c2ccc3ccccc3c2)Sc2ccccc2-n2cccc2C1=O (stereo not drawn) | 0.5 | 9 | IC50 [1]: 0.85 µM
39 | 4.9 | – | CCC1(c2ccccc2)Sc2ccccc2-n2cccc2C1=O (stereo not drawn) | 0.25 | 9 | IC50 [1]: 0.47 µM
40 | 2.2 | – | CSCn1cc2c(c1)S(=O)(=O)c1cc(Cl)ccc1NC2=O | – | – | –
41 | – | > 150 | N#Cc1cccc(CN2C(=O)N(Cc3cccc(Br)c3)S(=O)(=O)n3cccc32)c1 | – | – | –
42 | 0.1 | – | CC(C)c1c(COC(N)=O)cn(Cc2ccncc2)c1Sc1cc(F)cc(F)c1 | > 200 | 2000 | –

Row | EC50 [3] [µM] | EC50 [4] [µM] | Structure (SMILES) | CC50 [2] [µM] | selectivity ratio [5] | further results
43 | 0.12 | – | Cc1cccc(Sc2c(C(C)C)c(COC(N)=O)cn2Cc2ccncc2)c1 | > 200 | 1670 | –
44 | 0.1 | – | CC(C)c1c(COC(N)=O)cn(Cc2ccc(N)cc2)c1Sc1cc(Cl)cc(Cl)c1 | > 200 | 2000 | –
45 | – | – | CCCCCCCC(=O)NC1=NN(C)c2ncnc3c2c1cn3[C@@H]1O[C@H](CO)[C@@H](O)[C@H]1O | – | – | IC50 [6]: > 100 µM
46 | – | > 150 | O=C1N(Cc2ccccc2)c2cccn2S(=O)(=O)N1Cc1cccc(Cl)c1 | – | – | –
47 | 0.2 | – | CC(C)c1c(COC(N)=O)cn(Cc2ccncc2)c1Sc1cccc(F)c1 | > 200 | 1000 | –
48 | 0.15 | – | Cc1cc(C)cc(Sc2c(C(C)C)c(COC(N)=O)cn2Cc2ccncc2)c1 | > 200 | 1330 | –
49 | 0.008 | – | Cc1cccc(Sc2c(C(C)C)c(CO)cn2Cc2ccncc2)c1 | 50 | 3250 | –
50 | – | > 150 | N#CCN1C(=O)N(Cc2ccccc2)S(=O)(=O)n2cccc21 | – | – | –
51 | 3.5 | – | O=C1Nc2ccccc2S(=O)(=O)n2cccc21 | > 100 | – | IC50 [1]: 4 µM
52 | – | > 150 | O=C1N(Cc2cccc(Cl)c2)c2cccn2S(=O)(=O)N1Cc1ccccc1 | – | – | –
53 | – | > 150 | O=C1N(Cc2ccccc2Br)c2cccn2S(=O)(=O)N1Cc1cccc(Br)c1 | – | – | –
54 | 3.5 | – | CCN1C(=O)c2cccn2S(=O)(=O)c2ccc(Cl)cc21 | > 100 | – | IC50 [1]: 4 µM
55 | – | > 150 | CC(C)=CCN1C(=O)N(Cc2cccc(F)c2)S(=O)(=O)n2cccc21 | – | – | –
56 | – | > 150 | N#CCN1C(=O)N(Cc2cccc(Br)c2)S(=O)(=O)n2cccc21 | – | – | –
57 | 6.9 | – | CC1(c2ccccc2)Sc2ccccc2-n2cccc2C1=O (stereo not drawn) | 10 | 9 | IC50 [1]: 0.35 µM
58 | – | – | O=C(NNc1nc2ccccc2n2cccc12)c1cnccn1 | – | – | IC50 [1]: 19 µM
59 | 6.4 | – | C=CCC1(c2ccccc2)Sc2ccccc2-n2cccc2C1=O (stereo not drawn) | 25 | 9 | IC50 [1]: 0.71 µM
60 | – | > 150 | O=C1N(Cc2cccc(Cl)c2)c2cccn2S(=O)(=O)N1Cc1cccc(Br)c1 | – | – | –
61 | 0.5 | – | CN1C(=O)c2cccn2S(=O)(=O)c2cc(Cl)ccc21 | > 300 | > 600 | IC50 [1]: 0.5 µM
62 | – | > 150 | CC(C)=CCN1C(=O)N(Cc2cccc(Cl)c2)S(=O)(=O)n2cccc21 | – | – | –
